Test systems include UO-31 renal; HL-60(TB) leukemia; SN12C renal; COLO 205 colon; MDA-MB-231 breast; OVCAR-8 ovarian; NCI-H226 lung; DU-145 prostate; EKVX NSCLC; A498 renal.
Common to all, as to assay: growth of human tumour cells (NCI), 48 h

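A five-concentration, 48-hour dose response in 96-well plates underlies each endpoint, interpolated linearly between surrounding concentrations. GI50 marks 50% less growth. TGI: concentration producing complete growth inhibition.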

For the molecule `CN(c1cccc(C(=O)O)c1)c1cc(O/N=[N+](\[O-])N(C)C)c([N+](=O)[O-])cc1[N+](=O)[O-]`, the GI50 with UO-31 renal is over 100 µM; with HL-60(TB) leukemia, 72.2 µM; with SN12C renal, over 100 µM; in the assay on COLO 205 colon, over 100 µM; in the assay with MDA-MB-231 breast, over 100 µM; in the assay on OVCAR-8 ovarian, over 100 µM. In addition, the GI50 in the assay with NCI-H226 lung, in the assay on DU-145 prostate and with EKVX NSCLC was over 100 µM in each case. Also, the TGI with UO-31 renal, with HL-60(TB) leukemia, in the assay on SN12C renal, with COLO 205 colon, in the assay with MDA-MB-231 breast and in the assay on OVCAR-8 ovarian was over 100 µM throughout. Also, the TGI in the assay with NCI-H226 lung, in the assay on DU-145 prostate and with EKVX NSCLC was over 100 µM throughout.
On to `COC1CCCc2c(OC(C)=O)ccc(OC(C)=O)c21` (stereo unspecified), for which the TGI in the assay with UO-31 renal, in the assay with HL-60(TB) leukemia, with SN12C renal and in the assay with NCI-H226 lung was over 100 µM in each case.
For `CCN(Cc1ccc(Cl)c(Cl)c1)c1ccc2nc(N)nc(N)c2c1C`, the GI50 with UO-31 renal is 0.0457 µM; with HL-60(TB) leukemia, 0.195 µM; in the assay with COLO 205 colon, 0.148 µM; in the assay on NCI-H226 lung, 0.96 µM; in the assay with DU-145 prostate, 0.0544 µM; with A498 renal, 0.785 µM. The TGI was 1.64 µM in the assay with UO-31 renal; 2.54 µM in the assay on HL-60(TB) leukemia; 1.69 µM with COLO 205 colon; 4.3 µM in the assay with NCI-H226 lung; 2 µM with DU-145 prostate; 2.82 µM in the assay with EKVX NSCLC. The molecule further registered a TGI with A498 renal of 3.63 µM.
Take `Cn1cc(-c2ccc3c4ccccc4n(C)c3c2)c2ccccc21`: the TGI in the assay with UO-31 renal, with HL-60(TB) leukemia, in the assay on SN12C renal, with COLO 205 colon, in the assay with OVCAR-8 ovarian and in the assay with NCI-H226 lung was over 100 µM each time. Besides, the TGI in the assay with EKVX NSCLC and with A498 renal was over 100 µM throughout.
In the case of `N.N.N.N.N#N.N#N.[Cl-].[Os+6]`, the GI50 in the assay with UO-31 renal, in the assay on SN12C renal, with COLO 205 colon, in the assay with OVCAR-8 ovarian, with NCI-H226 lung and with EKVX NSCLC was over 100 µM in each case. The TGI in the assay on UO-31 renal, in the assay on SN12C renal, in the assay with COLO 205 colon, in the assay with OVCAR-8 ovarian, with NCI-H226 lung and with EKVX NSCLC was over 100 µM in each case.
For the molecule `CCCC(=O)Oc1ccc(/C(=C(\C)c2ccc(Cl)cc2)c2ccc(OCCN(CC)CC)cc2)cc1`, the GI50 in the assay with UO-31 renal was 1.43 µM; with HL-60(TB) leukemia, 2.23 µM; with SN12C renal it was 4.55 µM; in the assay with COLO 205 colon, 1.82 µM; with MDA-MB-231 breast it was 2.42 µM; in the assay on OVCAR-8 ovarian, 3.43 µM. Moreover, the results for the GI50 in the assay on NCI-H226 lung, in the assay on DU-145 prostate and in the assay with EKVX NSCLC were 8.8 µM, 3.46 µM and 7.2 µM, respectively. The TGI was 3.11 µM in the assay on UO-31 renal; 5.52 µM in the assay on HL-60(TB) leukemia; 18.1 µM in the assay with SN12C renal; 3.66 µM with COLO 205 colon; 5.13 µM in the assay with MDA-MB-231 breast; 11.9 µM with OVCAR-8 ovarian. The TGI worked out at 25 µM in the assay on NCI-H226 lung, 12.4 µM in the assay with DU-145 prostate and 21 µM in the assay with EKVX NSCLC.
For the molecule `CNc1c2ccccc2nc2occ(Cl)c12`, the GI50 was 31.3 µM with UO-31 renal; 52.6 µM in the assay with SN12C renal; 30.6 µM with COLO 205 colon; 37.7 µM in the assay with OVCAR-8 ovarian; 32.9 µM with NCI-H226 lung; 41.5 µM in the assay on DU-145 prostate. Moreover, the GI50 in the assay on A498 renal is 11.9 µM. In addition, the TGI in the assay with UO-31 renal, with SN12C renal, in the assay with COLO 205 colon, in the assay on OVCAR-8 ovarian, in the assay with NCI-H226 lung and in the assay on DU-145 prostate was over 100 µM in each case. For the same molecule, the TGI with A498 renal was 41.7 µM.
Turning to `O=C(n1c2ccccc2c2n[nH]c(=S)nc21)C(F)(F)F`, the TGI in the assay with UO-31 renal, in the assay with SN12C renal, in the assay with COLO 205 colon, in the assay on OVCAR-8 ovarian, with NCI-H226 lung and with EKVX NSCLC was over 100 µM each time.
As to `CC(C)(C)C1=CC(=N/N=c2\scc(-c3ccccc3)n2Cc2ccccc2)C=C(C(C)(C)C)C1=O`, the TGI in the assay on UO-31 renal, in the assay with HL-60(TB) leukemia, in the assay with SN12C renal, with COLO 205 colon, with OVCAR-8 ovarian and in the assay on NCI-H226 lung was over 100 µM in each case. Besides, the TGI in the assay with EKVX NSCLC and with A498 renal was over 100 µM each time.
Consider `CCN(CC)CCC(=O)/C=C/c1ccc(Cl)c(Cl)c1`, for which the TGI with HL-60(TB) leukemia was 1.76 µM; with SN12C renal it was 4.24 µM; with COLO 205 colon it was over 10 µM; in the assay on MDA-MB-231 breast, over 10 µM; with OVCAR-8 ovarian, over 10 µM; in the assay with NCI-H226 lung, over 10 µM. Also, the TGI in the assay on DU-145 prostate and in the assay on EKVX NSCLC was over 10 µM throughout.
With `Cc1c(C)c2cc3c(=O)c(CCl)coc3c(C)c2oc1=O`, the TGI in the assay with UO-31 renal, in the assay on HL-60(TB) leukemia, with SN12C renal, in the assay with COLO 205 colon, with OVCAR-8 ovarian and in the assay with NCI-H226 lung was over 100 µM throughout. Moreover, the TGI in the assay with EKVX NSCLC and in the assay with A498 renal was over 100 µM in each case.
For `COCN1COCN(C)C1=O`, the TGI in the assay with UO-31 renal, in the assay on SN12C renal, with COLO 205 colon, in the assay on OVCAR-8 ovarian, with NCI-H226 lung and with EKVX NSCLC was over 100 µM each time. The same molecule returned a TGI in the assay with A498 renal of over 100 µM.
Take `CCOC(=O)c1ccc(N=Cc2ccc(N(CCC#N)S(=O)(=O)c3ccccc3)cc2C)cc1`: the TGI was over 100 µM in the assay on UO-31 renal; over 100 µM in the assay on HL-60(TB) leukemia; over 100 µM in the assay on SN12C renal; 52.9 µM with COLO 205 colon; over 100 µM in the assay on OVCAR-8 ovarian; over 100 µM in the assay with EKVX NSCLC. Besides, in the assay with A498 renal, the TGI is over 100 µM.

These data come from PubChem BioAssay (NCI).
